Drawing on PubChem BioAssay (NCI), this text covers GI50 and TGI for eleven compounds.

Test systems include SK-MEL-28 melanoma; MCF7 breast; SNB-75 CNS; NCI/ADR-RES ovarian; CCRF-CEM leukemia; SK-MEL-5 melanoma; OVCAR-3 ovarian; SNB-19 CNS; SK-MEL-2 melanoma; K-562 leukemia.
Holding throughout (assay): DTP human tumour cell line panel, 48 h

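Tested at 5 concentrations; 48 h exposure; 96-well plates; endpoints linearly interpolated, else capped at highest concentration. GI50: concentration for 50% inhibition of growth. The concentration for full growth arrest is given as TGI.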 A value given as a limit tells only on which side of the number the result lay.

Regarding `COc1ccc2c(c1)C(=O)/C(=C/c1ccc([N+](=O)[O-])o1)O2`, the GI50 (commonly the concentration that inhibits growth by half) is 1.69 µM with SK-MEL-28 melanoma; 0.716 µM in the assay with MCF7 breast; 1.73 µM in the assay on SNB-75 CNS; 3.11 µM in the assay with NCI/ADR-RES ovarian; 0.513 µM in the assay on CCRF-CEM leukemia; 1.58 µM with SK-MEL-5 melanoma. Further, the GI50 in the assay with OVCAR-3 ovarian was 0.878 µM; with SNB-19 CNS, 3.09 µM; with SK-MEL-2 melanoma it was 1.83 µM. Moreover, the TGI (as a rule, the concentration giving total growth inhibition) was 3.22 µM in the assay on SK-MEL-28 melanoma; 2.84 µM in the assay with MCF7 breast; 5.69 µM in the assay with SNB-75 CNS; over 38.9 µM in the assay on NCI/ADR-RES ovarian; 2.19 µM in the assay with CCRF-CEM leukemia; 3.02 µM in the assay with SK-MEL-5 melanoma. Besides, the results for the concentration for total growth inhibition (TGI) in the assay with OVCAR-3 ovarian and with SK-MEL-2 melanoma were 2.22 µM and 3.83 µM, respectively.
As to `CN(C)CCNC(=O)Cn1cnc2cccc([N+](=O)[O-])c2c1=O`, the concentration for total growth inhibition (TGI) in the assay with SK-MEL-28 melanoma, in the assay with MCF7 breast, with K-562 leukemia, in the assay on NCI/ADR-RES ovarian, with CCRF-CEM leukemia and in the assay with SK-MEL-5 melanoma was over 100 µM throughout. Besides, the TGI in the assay on OVCAR-3 ovarian, with SNB-19 CNS and with SK-MEL-2 melanoma was over 100 µM in each case.
Consider `Cc1ccc(C(=O)/C(=C\c2ccc([N+](=O)[O-])cc2)S(=O)Cc2ccc(Cl)cc2)cc1` (stereo unspecified), for which the GI50 is 1.76 µM in the assay on SK-MEL-28 melanoma; 1.38 µM in the assay on MCF7 breast; 1.53 µM in the assay with SNB-75 CNS; 2.72 µM in the assay on NCI/ADR-RES ovarian; 0.635 µM in the assay with CCRF-CEM leukemia; 1.69 µM with SK-MEL-5 melanoma. For the same compound, the GI50 in the assay on OVCAR-3 ovarian was 1.7 µM; in the assay with SNB-19 CNS, 1.83 µM; in the assay with SK-MEL-2 melanoma, 1.96 µM. For the same compound, the total growth inhibition concentration (TGI) in the assay on SK-MEL-28 melanoma was 3.4 µM; with MCF7 breast, 3.68 µM; with SNB-75 CNS, 3.25 µM; in the assay on NCI/ADR-RES ovarian it was 7.97 µM; in the assay with CCRF-CEM leukemia it was over 100 µM; in the assay with SK-MEL-5 melanoma it was 3.23 µM. In addition, the TGI with OVCAR-3 ovarian came to 3.14 µM; with SNB-19 CNS it was 3.68 µM; in the assay on SK-MEL-2 melanoma it was 4.15 µM.
`C/C(=N\NC(=S)SCc1ccccc1)c1ccccn1`: the TGI with MCF7 breast was under 0.01 µM; with SNB-75 CNS, 13.7 µM; in the assay on K-562 leukemia, 2.95 µM; in the assay with NCI/ADR-RES ovarian, under 0.0332 µM; in the assay with CCRF-CEM leukemia, under 0.01 µM; in the assay with SK-MEL-5 melanoma, 5.56 µM. Besides, the TGI was found to be 18.3 µM with SNB-19 CNS and 11.6 µM in the assay on SK-MEL-2 melanoma.
On to `O=NNc1ccc(Sc2ccc(NN=O)cn2)nc1`, for which the total growth inhibition concentration (TGI) in the assay on SK-MEL-28 melanoma, in the assay with MCF7 breast, with SNB-75 CNS, in the assay with K-562 leukemia, with NCI/ADR-RES ovarian and in the assay on CCRF-CEM leukemia was over 100 µM in each case. Moreover, the total growth inhibition concentration (TGI) with SK-MEL-5 melanoma, in the assay on OVCAR-3 ovarian and in the assay on SNB-19 CNS was over 100 µM each time.
With `CC1(C)NCCC[C@]2(C)[C@H]3CC[C@@H]4[C@H]5[C@H](C(=O)/C=C/c6ccccn6)CC[C@]5(CO)CC[C@@]4(C)[C@]3(C)CC[C@@H]12`, the GI50 in the assay on SK-MEL-28 melanoma was 3.75 µM; with MCF7 breast, 1.85 µM; in the assay with K-562 leukemia it was 2.19 µM; in the assay on NCI/ADR-RES ovarian it was 3.43 µM; with CCRF-CEM leukemia, 2.71 µM; in the assay with SK-MEL-5 melanoma, 2 µM. Besides, the GI50 is 2.14 µM with OVCAR-3 ovarian, 3.92 µM in the assay with SNB-19 CNS and 2.49 µM in the assay with SK-MEL-2 melanoma. The TGI was 15.7 µM in the assay with SK-MEL-28 melanoma; 5.8 µM in the assay on MCF7 breast; over 100 µM with K-562 leukemia; 13.9 µM in the assay on NCI/ADR-RES ovarian; 11.4 µM in the assay with CCRF-CEM leukemia; 4.07 µM in the assay with SK-MEL-5 melanoma. The concentration for total growth inhibition (TGI) turned out to be 4.89 µM in the assay with OVCAR-3 ovarian, 19.8 µM in the assay with SNB-19 CNS and 6.91 µM with SK-MEL-2 melanoma.
Consider `O=C(O)c1c(=O)cccc2ssc12`, for which the GI50 was 1.69 µM in the assay on SK-MEL-28 melanoma; 1.83 µM in the assay with MCF7 breast; 2.04 µM in the assay on K-562 leukemia; 2.4 µM in the assay on NCI/ADR-RES ovarian; 2.41 µM with SK-MEL-5 melanoma; 1.81 µM with OVCAR-3 ovarian. Moreover, the figures for the GI50 in the assay on SNB-19 CNS and in the assay on SK-MEL-2 melanoma were 1.92 µM and 2.03 µM, respectively. Moreover, the TGI with SK-MEL-28 melanoma amounted to 3.25 µM; in the assay on MCF7 breast, 3.9 µM; with K-562 leukemia it was 5.51 µM; in the assay on NCI/ADR-RES ovarian, 5.68 µM; with SK-MEL-5 melanoma, 5.85 µM; with OVCAR-3 ovarian, 3.38 µM. Besides, the total growth inhibition concentration (TGI) came to 3.79 µM with SNB-19 CNS and 3.83 µM with SK-MEL-2 melanoma.
Turning to `N#Cc1cc(S(=O)(=O)Nc2nnc(-c3ccccc3)c(-c3ccccc3)n2)c(SCc2ccccc2)cc1Cl`, the GI50 with SK-MEL-28 melanoma was 35.2 µM; with MCF7 breast it was 31 µM; in the assay on K-562 leukemia, 27.2 µM; in the assay with CCRF-CEM leukemia it was 7.06 µM; in the assay on SK-MEL-5 melanoma, 23 µM; in the assay on OVCAR-3 ovarian, 15.3 µM. Moreover, the GI50 in the assay with SNB-19 CNS was 35.1 µM; in the assay on SK-MEL-2 melanoma, 41.8 µM. The TGI in the assay with SK-MEL-28 melanoma is 91.3 µM; in the assay on MCF7 breast, over 100 µM; in the assay with K-562 leukemia it was over 100 µM; with CCRF-CEM leukemia, over 100 µM; in the assay on SK-MEL-5 melanoma it was 51.4 µM; in the assay with OVCAR-3 ovarian, 31.5 µM. In addition, the TGI with SNB-19 CNS and in the assay with SK-MEL-2 melanoma was over 100 µM in each case.
With `NS(=O)(=O)CC1CC[CH-]CC1.[Cl-].[Cl-].[Cl-].[Cl-].[Cl-].[Sb+5].c1ccncc1`, the GI50 with SK-MEL-28 melanoma, in the assay on MCF7 breast, with SNB-75 CNS, in the assay on K-562 leukemia, in the assay with NCI/ADR-RES ovarian and in the assay on SK-MEL-5 melanoma was over 100 µM throughout. Besides, the GI50 in the assay with OVCAR-3 ovarian, in the assay with SNB-19 CNS and with SK-MEL-2 melanoma was over 100 µM in each case. Besides, the TGI in the assay on SK-MEL-28 melanoma, in the assay on MCF7 breast, in the assay on SNB-75 CNS, with K-562 leukemia, in the assay with NCI/ADR-RES ovarian and in the assay on SK-MEL-5 melanoma was over 100 µM throughout. Moreover, the TGI in the assay with OVCAR-3 ovarian, in the assay with SNB-19 CNS and in the assay with SK-MEL-2 melanoma was over 100 µM throughout.
As for `CCCCCCCCCCCCCCCCCCOCC(CCP(=O)(CP(=O)(O)O)Oc1ccccc1)OCCCCCCCCCCCCCCCCCC` (stereo unspecified), the concentration for total growth inhibition (TGI) with SK-MEL-28 melanoma, in the assay on MCF7 breast, with SNB-75 CNS, in the assay with K-562 leukemia, in the assay with NCI/ADR-RES ovarian and in the assay with CCRF-CEM leukemia was over 100 µM throughout. Besides, the TGI in the assay on SK-MEL-5 melanoma, in the assay with OVCAR-3 ovarian and in the assay on SNB-19 CNS was over 100 µM in each case.
Regarding `COc1ccc2oc(C(=O)O)c3c2c1CCC3CCC(=O)O` (stereo unspecified), the total growth inhibition concentration (TGI) with SK-MEL-28 melanoma was over 100 µM; with SNB-75 CNS, over 100 µM; with K-562 leukemia, over 100 µM; in the assay on CCRF-CEM leukemia it was over 100 µM; in the assay on SK-MEL-5 melanoma it was over 100 µM; in the assay on OVCAR-3 ovarian, over 1 µM. Also, the TGI in the assay with SNB-19 CNS and in the assay on SK-MEL-2 melanoma was over 100 µM in each case.
